{
  "source": "ChEMBL document CHEMBL1131406",
  "about": "“Tripeptide growth hormone secretagogues” (Bioorg Med Chem Lett, 1998)",
  "key": {"[1]": {"species": "Rattus norvegicus", "test": "Compound was tested in vitro for growth hormone release from rat pituitary cells; Inactive", "assay_type": "functional, cell-based", "details": "pituitary gland cell; call rule not given here"}, "[2]": {"species": "Rattus norvegicus", "test": "Tested in vitro for growth hormone release from rat pituitary cells", "assay_type": "functional, cell-based, Pituitary gland cell"}, "[3]": {"details": "Rattus norvegicus, Pituitary gland cell"}},
  "data": [
    {"smiles": "CCOC(=O)[C@@H](CCc1ccccc1)NC(=O)[C@H](Cc1c[nH]c2ccccc12)NC(=O)C(C)(C)N", "values": [
      {"measurement": "EC50", "setting": "[1]", "result": "Not Active"}
    ]},
    {"smiles": "CCOC(=O)[C@H](Cc1cccc2ccccc12)NC(=O)[C@@H](Cc1c[nH]c2ccccc12)NC(=O)C(C)(C)N", "values": [
      {"measurement": "EC50", "setting": "[2]; [3]", "result": 40, "unit": "nM"}
    ]},
    {"smiles": "CC(C)(N)C(=O)N[C@H](Cc1c[nH]c2ccccc12)C(=O)N[C@H](CCc1ccccc1)C(=O)O", "values": [
      {"measurement": "EC50", "setting": "[2]; [3]", "result": "> 500", "unit": "nM"}
    ]},
    {"smiles": "CCOC(=O)[C@@H](CCc1ccccc1)NC(=O)[C@@H](Cc1cccc2ccccc12)NC(=O)C(C)(C)N", "values": [
      {"measurement": "EC50", "setting": "[2]; [3]", "result": "> 50", "unit": "nM"}
    ]},
    {"smiles": "CCOC(=O)[C@H](CCc1ccccc1)NC(=O)[C@@H](Cc1c[nH]c2ccccc12)NC(=O)C(C)(C)N", "values": [
      {"measurement": "EC50", "setting": "[2]; [3]", "result": 3, "unit": "nM"}
    ]},
    {"smiles": "CCOC(=O)[C@H](Cc1ccc2ccccc2c1)NC(=O)[C@@H](Cc1c[nH]c2ccccc12)NC(=O)C(C)(C)N", "values": [
      {"measurement": "EC50", "setting": "[2]; [3]", "result": 2000, "unit": "nM"}
    ]},
    {"smiles": "CCOC(=O)[C@@H](CCCc1ccccc1)NC(=O)[C@@H](Cc1c[nH]c2ccccc12)NC(=O)C(C)(C)N", "values": [
      {"measurement": "EC50", "setting": "[2]; [3]", "result": 1140, "unit": "nM"}
    ]},
    {"smiles": "CCOC(=O)[C@@H](CCc1ccccc1)NC(=O)[C@@H](Cc1ccc2ccccc2c1)NC(=O)C(C)(C)N", "values": [
      {"measurement": "EC50", "setting": "[1]", "result": "Not Active"}
    ]},
    {"smiles": "CCOC(=O)[C@H](CCc1ccccc1)N(C)C(=O)[C@@H](Cc1c[nH]c2ccccc12)NC(=O)C(C)(C)N", "values": [
      {"measurement": "EC50", "setting": "[2]; [3]", "result": 270, "unit": "nM"}
    ]},
    {"smiles": "CC(C)OC(=O)[C@@H](CCc1ccccc1)NC(=O)[C@@H](Cc1c[nH]c2ccccc12)NC(=O)C(C)(C)N", "values": [
      {"measurement": "EC50", "setting": "[2]; [3]", "result": 4, "unit": "nM"}
    ]},
    {"smiles": "CCOC(=O)[C@@H](CCc1ccccc1)NC(=O)[C@@H](Cc1c[nH]c2ccccc12)NC(=O)C(C)(C)N", "values": [
      {"measurement": "EC50", "setting": "[2]; pituitary gland cell", "result": 50, "unit": "nM"}
    ]},
    {"smiles": "CCOC(=O)[C@H](CCCc1ccccc1)NC(=O)[C@@H](Cc1c[nH]c2ccccc12)NC(=O)C(C)(C)N", "values": [
      {"measurement": "EC50", "setting": "[2]; [3]", "result": 820, "unit": "nM"}
    ]},
    {"smiles": "CCOC(=O)[C@@H](Cc1ccccc1)NC(=O)[C@@H](Cc1c[nH]c2ccccc12)NC(=O)C(C)(C)N", "values": [
      {"measurement": "EC50", "setting": "[2]; [3]", "result": 350, "unit": "nM"}
    ]},
    {"smiles": "CC(C)(N)C(=O)N[C@H](Cc1c[nH]c2ccccc12)C(=O)NCCc1cccc2ccccc12", "values": [
      {"measurement": "EC50", "setting": "[2]; [3]", "result": 860, "unit": "nM"}
    ]},
    {"smiles": "COC(=O)[C@@H](CCc1ccccc1)NC(=O)[C@@H](Cc1c[nH]c2ccccc12)NC(=O)C(C)(C)N", "values": [
      {"measurement": "EC50", "setting": "[2]; [3]", "result": 18, "unit": "nM"}
    ]},
    {"smiles": "CC(C)(N)C(=O)N[C@H](Cc1c[nH]c2ccccc12)C(=O)NCc1ccc2ccccc2c1", "values": [
      {"measurement": "EC50", "setting": "[2]; [3]", "result": 85, "unit": "nM"}
    ]},
    {"smiles": "CC(C)(N)C(=O)N[C@H](Cc1c[nH]c2ccccc12)C(=O)NCc1cccc2ccccc12", "values": [
      {"measurement": "EC50", "setting": "[1]", "result": "Not Active"}
    ]},
    {"smiles": "CC(C)(N)C(=O)N[C@H](Cc1c[nH]c2ccccc12)C(=O)NCCCCc1ccccc1", "values": [
      {"measurement": "EC50", "setting": "[2]; [3]", "result": 700, "unit": "nM"}
    ]},
    {"smiles": "CCOC(=O)[C@H](Cc1ccccc1)NC(=O)[C@@H](Cc1c[nH]c2ccccc12)NC(=O)C(C)(C)N", "values": [
      {"measurement": "EC50", "setting": "[2]; [3]", "result": 240, "unit": "nM"}
    ]},
    {"smiles": "CC(C)(N)C(=O)N[C@H](Cc1c[nH]c2ccccc12)C(=O)NCCCc1ccccc1", "values": [
      {"measurement": "EC50", "setting": "[2]; [3]", "result": 390, "unit": "nM"}
    ]},
    {"smiles": "CC(C)(N)C(=O)N[C@H](Cc1c[nH]c2ccccc12)C(=O)NCCc1ccccc1", "values": [
      {"measurement": "EC50", "setting": "[1]", "result": "Not Active"}
    ]},
    {"smiles": "CCNC(=O)[C@@H](CCc1ccccc1)NC(=O)[C@@H](Cc1c[nH]c2ccccc12)NC(=O)C(C)(C)N", "values": [
      {"measurement": "EC50", "setting": "[2]; [3]", "result": 246, "unit": "nM"}
    ]},
    {"smiles": "CC(C)(N)C(=O)N[C@H](Cc1c[nH]c2ccccc12)C(=O)N[C@H](CCc1ccccc1)C(=O)OCc1ccccc1", "values": [
      {"measurement": "EC50", "setting": "[2]; [3]", "result": 500, "unit": "nM"}
    ]},
    {"smiles": "CCOC(=O)[C@H](Cc1ccccc1)N(C)C(=O)[C@@H](Cc1c[nH]c2ccccc12)NC(=O)C(C)(C)N", "values": [
      {"measurement": "EC50", "setting": "[2]; [3]", "result": 40, "unit": "nM"}
    ]}
  ]
}
